Reference: ChEMBL document CHEMBL4364276, “Discovery of 4-phenyl-2H-benzo[b][1,4]oxazin-3(4H)-one derivatives as potent and orally active PI3K/mTOR dual inhibitors” (Eur J Med Chem, 2019)

How the values were obtained:
[1] = target: Serine/threonine-protein kinase 4 (Homo sapiens) (UniProt Q13043); experiment: Inhibition of human MST1 at 100 nM using KKSRGDYMTMQIG as substrate by [gamma-33P]-ATP assay
[2] = target: Serine/threonine-protein kinase MRCK gamma (Homo sapiens) (UniProt Q6DT37); experiment: Inhibition of human DMPK2 at 100 nM using KKRPQRRYSNVF as substrate by [gamma-33P]-ATP assay
[3] = target: STE20/SPS1-related proline-alanine-rich protein kinase (Homo sapiens) (UniProt Q9UEW8); experiment: Inhibition of human STK39 at 100 nM using MBP as substrate by [gamma-33P]-ATP assay
[4] = target: Serine/threonine-protein kinase VRK2 (Homo sapiens) (UniProt Q86Y07); experiment: Inhibition of human VRK2 at 100 nM using casein as substrate by [gamma-33P]-ATP assay
[5] = target: Protein-tyrosine kinase 2-beta (Homo sapiens) (UniProt Q14289); experiment: Inhibition of human PYK2 at 100 nM using poly[Glu:Tyr] (4:1) as substrate by [gamma-33P]-ATP assay
[6] = target: CDK1/Cyclin E (Homo sapiens) (UniProt P06493+P24864); experiment: Inhibition of human CDK1/cyclinE at 100 nM using RB protein as substrate by [gamma-33P]-ATP assay; type: protein-complex assay
[7] = target: Macrophage-stimulating protein receptor (Homo sapiens) (UniProt Q04912); experiment: Inhibition of human RON at 100 nM using KKSRGDYMTMQIG as substrate by [gamma-33P]-ATP assay
Macrophage-stimulating protein receptor (Homo sapiens), sequence (Q04912 25-304 limits assumed): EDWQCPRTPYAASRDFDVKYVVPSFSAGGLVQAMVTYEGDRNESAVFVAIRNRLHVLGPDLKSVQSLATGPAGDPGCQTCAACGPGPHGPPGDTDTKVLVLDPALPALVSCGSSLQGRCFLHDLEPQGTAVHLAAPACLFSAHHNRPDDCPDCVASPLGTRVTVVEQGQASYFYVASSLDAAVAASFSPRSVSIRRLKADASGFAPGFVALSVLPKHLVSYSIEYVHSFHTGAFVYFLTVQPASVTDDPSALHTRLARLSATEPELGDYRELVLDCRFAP
Macrophage-stimulating protein receptor (Homo sapiens), sequence (Q04912 310-1400 limits assumed): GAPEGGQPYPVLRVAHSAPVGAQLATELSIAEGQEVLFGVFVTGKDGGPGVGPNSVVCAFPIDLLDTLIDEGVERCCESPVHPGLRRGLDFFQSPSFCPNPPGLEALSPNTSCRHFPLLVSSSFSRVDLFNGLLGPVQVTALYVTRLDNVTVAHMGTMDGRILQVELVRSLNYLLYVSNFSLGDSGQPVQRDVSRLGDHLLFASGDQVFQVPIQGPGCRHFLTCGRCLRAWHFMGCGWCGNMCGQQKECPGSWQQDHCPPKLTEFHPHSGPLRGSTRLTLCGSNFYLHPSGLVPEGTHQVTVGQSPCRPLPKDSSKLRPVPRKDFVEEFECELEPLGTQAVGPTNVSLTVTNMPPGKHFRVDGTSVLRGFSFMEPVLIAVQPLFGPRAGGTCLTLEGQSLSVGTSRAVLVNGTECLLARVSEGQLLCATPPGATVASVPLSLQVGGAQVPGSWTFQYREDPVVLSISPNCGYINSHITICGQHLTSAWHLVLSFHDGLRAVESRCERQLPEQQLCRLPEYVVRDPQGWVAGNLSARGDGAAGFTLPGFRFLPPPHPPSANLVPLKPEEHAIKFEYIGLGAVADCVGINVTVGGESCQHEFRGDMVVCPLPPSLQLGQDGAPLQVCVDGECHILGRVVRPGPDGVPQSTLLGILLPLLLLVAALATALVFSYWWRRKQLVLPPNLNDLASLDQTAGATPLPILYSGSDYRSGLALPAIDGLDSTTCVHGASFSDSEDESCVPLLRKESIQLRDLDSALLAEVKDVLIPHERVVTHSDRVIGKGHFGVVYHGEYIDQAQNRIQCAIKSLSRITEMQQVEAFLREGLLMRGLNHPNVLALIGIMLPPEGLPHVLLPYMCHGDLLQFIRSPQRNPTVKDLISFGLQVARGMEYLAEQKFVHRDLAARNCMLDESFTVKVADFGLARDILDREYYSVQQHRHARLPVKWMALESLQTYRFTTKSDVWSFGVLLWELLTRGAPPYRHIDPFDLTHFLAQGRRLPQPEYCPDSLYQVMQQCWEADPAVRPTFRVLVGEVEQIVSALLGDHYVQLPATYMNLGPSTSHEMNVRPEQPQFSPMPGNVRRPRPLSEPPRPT

[8] = target: Myosin light chain kinase 2, skeletal/cardiac muscle (Homo sapiens) (UniProt Q9H1R3); experiment: Inhibition of human MLCK2 at 100 nM using KKLNRTLSFAEPG as substrate by [gamma-33P]-ATP assay
Myosin light chain kinase 2, skeletal/cardiac muscle (Homo sapiens), sequence (Q9H1R3 whole entry): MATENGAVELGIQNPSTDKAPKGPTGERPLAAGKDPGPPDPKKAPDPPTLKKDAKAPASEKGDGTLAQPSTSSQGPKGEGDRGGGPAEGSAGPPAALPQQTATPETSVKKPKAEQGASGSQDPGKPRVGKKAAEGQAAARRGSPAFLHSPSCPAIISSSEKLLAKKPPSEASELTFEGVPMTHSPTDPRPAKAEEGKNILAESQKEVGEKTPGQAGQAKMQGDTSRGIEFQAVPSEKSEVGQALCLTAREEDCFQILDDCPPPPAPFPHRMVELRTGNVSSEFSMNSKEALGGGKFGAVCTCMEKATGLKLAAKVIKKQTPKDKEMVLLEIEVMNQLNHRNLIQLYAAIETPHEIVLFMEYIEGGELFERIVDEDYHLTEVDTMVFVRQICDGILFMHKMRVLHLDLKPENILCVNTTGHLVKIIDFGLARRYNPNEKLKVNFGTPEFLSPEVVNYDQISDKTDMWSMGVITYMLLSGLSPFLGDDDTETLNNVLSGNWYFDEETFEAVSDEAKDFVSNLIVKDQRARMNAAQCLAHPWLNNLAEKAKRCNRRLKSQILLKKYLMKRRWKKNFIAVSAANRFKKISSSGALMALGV

[9] = target: Mitogen-activated protein kinase kinase kinase kinase 4 (Homo sapiens) (UniProt O95819); experiment: Inhibition of human HGK at 100 nM using MBP as substrate by [gamma-33P]-ATP assay
[10] = target: Serine/threonine-protein kinase NLK (Homo sapiens) (UniProt Q9UBE8); experiment: Inhibition of human NLK at 100 nM using MBP as substrate by [gamma-33P]-ATP assay
[11] = target: G protein-coupled receptor kinase 5 (Homo sapiens) (UniProt P34947); experiment: Inhibition of human GRK5 at 100 nM using casein as substrate by [gamma-33P]-ATP assay
[12] = target: Receptor tyrosine-protein kinase erbB-2 (Homo sapiens) (UniProt P04626); experiment: Inhibition of human ERBB2 at 100 nM using poly[Glu:Tyr] (4:1) as substrate by [gamma-33P]-ATP assay
[13] = target: Calcium/calmodulin-dependent protein kinase type IV (Homo sapiens) (UniProt Q16566); experiment: Inhibition of human CAMK4 at 100 nM using KKLNRTLSFAEPG as substrate by [gamma-33P]-ATP assay
[14] = target: Serine/threonine-protein kinase N3 (Homo sapiens) (UniProt Q6P5Z2); experiment: Inhibition of human PKN3 at 100 nM using KKLNRTLSVA as substrate by [gamma-33P]-ATP assay
Serine/threonine-protein kinase N3 (Homo sapiens), sequence (Q6P5Z2 whole entry, looked up): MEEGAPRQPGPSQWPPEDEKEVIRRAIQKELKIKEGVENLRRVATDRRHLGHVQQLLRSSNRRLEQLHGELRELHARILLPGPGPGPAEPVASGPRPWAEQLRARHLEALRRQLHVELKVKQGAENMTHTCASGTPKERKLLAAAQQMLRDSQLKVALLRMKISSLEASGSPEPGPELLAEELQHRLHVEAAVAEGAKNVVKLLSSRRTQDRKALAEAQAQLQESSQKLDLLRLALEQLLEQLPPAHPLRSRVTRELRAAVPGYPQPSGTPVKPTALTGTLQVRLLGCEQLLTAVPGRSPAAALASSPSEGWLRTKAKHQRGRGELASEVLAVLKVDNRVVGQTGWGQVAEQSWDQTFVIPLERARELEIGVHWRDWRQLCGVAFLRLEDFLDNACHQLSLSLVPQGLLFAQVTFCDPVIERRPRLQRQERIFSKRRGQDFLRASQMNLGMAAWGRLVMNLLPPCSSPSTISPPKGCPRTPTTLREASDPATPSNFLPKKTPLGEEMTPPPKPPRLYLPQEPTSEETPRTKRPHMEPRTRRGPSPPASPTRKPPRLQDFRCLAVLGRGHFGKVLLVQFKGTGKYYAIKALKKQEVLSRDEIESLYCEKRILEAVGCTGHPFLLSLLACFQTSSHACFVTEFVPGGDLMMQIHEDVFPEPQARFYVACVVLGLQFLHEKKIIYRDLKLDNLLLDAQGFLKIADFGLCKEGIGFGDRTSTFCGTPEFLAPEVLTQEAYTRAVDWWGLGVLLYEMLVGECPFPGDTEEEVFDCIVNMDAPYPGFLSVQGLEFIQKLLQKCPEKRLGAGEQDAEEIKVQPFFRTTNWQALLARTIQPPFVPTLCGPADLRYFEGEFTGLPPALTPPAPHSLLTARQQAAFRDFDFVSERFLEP

[15] = target: Calcium/calmodulin-dependent protein kinase kinase 1 (Homo sapiens) (UniProt Q8N5S9); experiment: Inhibition of human CAMKK1 at 100 nM using MBP as substrate by [gamma-33P]-ATP assay
[16] = target: Tyrosine-protein kinase ZAP-70 (Homo sapiens) (UniProt P43403); experiment: Inhibition of human ZAP70 at 100 nM using poly[Glu:Tyr] (4:1) as substrate by [gamma-33P]-ATP assay
[17] = target: Dual specificity protein kinase CLK3 (Homo sapiens) (UniProt P49761); experiment: Inhibition of human CLK3 at 100 nM using MBP as substrate by [gamma-33P]-ATP assay
Dual specificity protein kinase CLK3 (Homo sapiens), sequence (P49761 whole entry, looked up): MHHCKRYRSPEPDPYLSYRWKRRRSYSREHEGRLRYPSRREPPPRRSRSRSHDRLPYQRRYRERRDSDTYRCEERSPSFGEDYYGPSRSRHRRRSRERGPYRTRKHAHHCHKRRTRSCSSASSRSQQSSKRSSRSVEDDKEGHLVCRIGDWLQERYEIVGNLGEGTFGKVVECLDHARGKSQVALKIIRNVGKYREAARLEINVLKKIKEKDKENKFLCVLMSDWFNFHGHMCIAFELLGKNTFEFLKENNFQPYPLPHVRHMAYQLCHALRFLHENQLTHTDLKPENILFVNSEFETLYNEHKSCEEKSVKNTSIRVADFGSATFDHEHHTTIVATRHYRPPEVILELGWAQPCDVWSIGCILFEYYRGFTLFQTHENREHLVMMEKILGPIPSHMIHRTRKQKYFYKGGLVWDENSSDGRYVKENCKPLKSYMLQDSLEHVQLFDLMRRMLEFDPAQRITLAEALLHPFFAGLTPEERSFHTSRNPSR

[18] = target: Serine/threonine-protein kinase pim-3 (Homo sapiens) (UniProt Q86V86); experiment: Inhibition of human PIM3 at 100 nM using RSRHSSYPAGT as substrate by [gamma-33P]-ATP assay
[19] = target: DNA-dependent protein kinase catalytic subunit (Homo sapiens) (UniProt P78527); experiment: Inhibition of human DNAPK at 100 nM using EPPLSQEAFADLWKK as substrate by [gamma-33P]-ATP assay
Homo sapiens = species: Homo sapiens; experiment: Inhibition of human AMPK (A2/B2/G2) at 100 nM using HMRSAMSGLHLVKRR as substrate by [gamma-33P]-ATP assay
[20] = target: Serine/threonine-protein kinase SIK3 (Homo sapiens) (UniProt Q9Y2K2); experiment: Inhibition of human SIK3 at 100 nM using AMARAASAAALARRR as substrate by [gamma-33P]-ATP assay
[21] = target: Casein kinase I isoform delta (Homo sapiens) (UniProt P48730); experiment: Inhibition of human CK1D at 100 nM using KRRRAL[pS]VASLPGL as substrate by [gamma-33P]-ATP assay
[22] = target: Tyrosine-protein kinase SYK (Homo sapiens) (UniProt P43405); experiment: Inhibition of human SYK at 100 nM using poly[Glu:Tyr] (4:1) as substrate by [gamma-33P]-ATP assay
[23] = target: Ribosomal protein S6 kinase alpha-5 (Homo sapiens) (UniProt O75582); experiment: Inhibition of human MSK1 at 100 nM using GRPRTSSFAEG as substrate by [gamma-33P]-ATP assay
Ribosomal protein S6 kinase alpha-5 (Homo sapiens), sequence (O75582 whole entry, looked up): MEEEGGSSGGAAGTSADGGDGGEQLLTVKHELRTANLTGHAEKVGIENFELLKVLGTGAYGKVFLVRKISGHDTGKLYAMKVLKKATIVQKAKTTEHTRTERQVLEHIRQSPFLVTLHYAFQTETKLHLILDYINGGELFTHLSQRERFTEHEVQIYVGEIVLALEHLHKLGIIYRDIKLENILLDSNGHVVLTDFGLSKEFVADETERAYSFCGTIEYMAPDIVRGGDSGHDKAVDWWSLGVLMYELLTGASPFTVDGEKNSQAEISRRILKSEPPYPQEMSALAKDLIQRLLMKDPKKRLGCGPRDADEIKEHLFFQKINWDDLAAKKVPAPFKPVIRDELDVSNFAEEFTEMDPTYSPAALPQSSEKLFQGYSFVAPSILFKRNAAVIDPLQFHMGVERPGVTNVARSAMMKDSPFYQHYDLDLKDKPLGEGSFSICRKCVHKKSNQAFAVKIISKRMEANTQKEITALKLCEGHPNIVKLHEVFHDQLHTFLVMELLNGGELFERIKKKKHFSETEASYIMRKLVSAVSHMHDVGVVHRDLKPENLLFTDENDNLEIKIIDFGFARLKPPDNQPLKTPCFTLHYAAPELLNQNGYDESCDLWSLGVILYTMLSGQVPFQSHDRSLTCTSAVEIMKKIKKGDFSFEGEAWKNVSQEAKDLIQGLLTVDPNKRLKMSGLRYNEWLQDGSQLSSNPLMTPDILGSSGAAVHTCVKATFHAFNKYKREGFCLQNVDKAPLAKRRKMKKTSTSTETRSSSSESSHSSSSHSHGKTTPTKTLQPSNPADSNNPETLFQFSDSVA

[24] = target: CDC7/DBF4 (Cell division cycle 7-related protein kinase/Activator of S phase kinase) (Homo sapiens) (UniProt Q9UBU7+O00311); experiment: Inhibition of human CDC7/DBF4 at 100 nM using KTFCGTPEYLAPEVRREPRILSEEEQEMFRDFDYIADWC as substrate by [gamma-33P]-ATP assay; type: protein-complex assay
[25] = target: Serine/threonine-protein kinase LATS2 (Homo sapiens) (UniProt Q9NRM7); experiment: Inhibition of human LATS2 at 100 nM using KKRNRRLSVA as substrate by [gamma-33P]-ATP assay
[26] = target: Serine/threonine-protein kinase TAO3 (Homo sapiens) (UniProt Q9H2K8); experiment: Inhibition of human TAOK3 at 100 nM using MBP as substrate by [gamma-33P]-ATP assay
Serine/threonine-protein kinase TAO3 (Homo sapiens), sequence (Q9H2K8 whole entry): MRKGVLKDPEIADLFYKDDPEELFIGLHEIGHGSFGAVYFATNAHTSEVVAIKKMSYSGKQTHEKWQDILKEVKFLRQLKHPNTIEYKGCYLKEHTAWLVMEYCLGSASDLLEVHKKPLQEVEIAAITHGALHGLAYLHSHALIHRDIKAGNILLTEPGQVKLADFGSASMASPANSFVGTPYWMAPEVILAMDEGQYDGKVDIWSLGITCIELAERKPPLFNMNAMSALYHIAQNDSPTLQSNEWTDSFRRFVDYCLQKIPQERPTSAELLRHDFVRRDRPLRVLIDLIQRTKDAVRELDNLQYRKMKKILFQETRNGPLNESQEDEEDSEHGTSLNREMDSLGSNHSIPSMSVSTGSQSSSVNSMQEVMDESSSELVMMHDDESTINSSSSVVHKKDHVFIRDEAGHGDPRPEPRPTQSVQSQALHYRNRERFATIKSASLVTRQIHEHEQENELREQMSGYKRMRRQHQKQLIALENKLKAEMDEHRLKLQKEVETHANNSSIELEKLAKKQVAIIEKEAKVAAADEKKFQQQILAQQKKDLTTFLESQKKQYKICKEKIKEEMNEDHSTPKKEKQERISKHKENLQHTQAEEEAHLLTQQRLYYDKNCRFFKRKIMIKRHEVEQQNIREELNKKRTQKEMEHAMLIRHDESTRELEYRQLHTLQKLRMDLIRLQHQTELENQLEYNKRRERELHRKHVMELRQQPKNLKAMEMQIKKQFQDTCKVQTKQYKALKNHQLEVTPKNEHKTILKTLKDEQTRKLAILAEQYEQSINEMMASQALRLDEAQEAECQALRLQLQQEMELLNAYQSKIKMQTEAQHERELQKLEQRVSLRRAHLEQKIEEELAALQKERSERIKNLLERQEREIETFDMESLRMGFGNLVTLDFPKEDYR

[27] = target: Serine/threonine-protein kinase haspin (Homo sapiens) (UniProt Q8TF76); experiment: Inhibition of human haspin at 100 nM using Histone H3 as substrate by [gamma-33P]-ATP assay
[28] = target: Mitogen-activated protein kinase kinase kinase 21 (Homo sapiens) (UniProt Q5TCX8); experiment: Inhibition of human MLK4 at 100 nM using MEK1 as substrate by [gamma-33P]-ATP assay
[29] = target: Protein kinase C iota type (Homo sapiens) (UniProt P41743); experiment: Inhibition of human PKCiota at 100 nM using ERMRPRKRQGSVRRRV as substrate by [gamma-33P]-ATP assay

SMILES: COc1ccc(N2C(=O)COc3ccc(-c4cnc(OC)c(NS(=O)(=O)c5ccc(F)cc5)c4)cc32)cc1
- inhibition [1]: 11.4%
- inhibition [2]: -9.5%
- inhibition [3]: 10%
- inhibition [4]: 7%
- inhibition [5]: 6.22%
- inhibition [6]: 7.09%
- inhibition [7]: -0.5%
- inhibition [8]: 0.61%
- inhibition [9]: 19.4%
- inhibition [10]: 10.8%
- inhibition [11]: -0.54%
- inhibition [12]: 3.37%
- inhibition [13]: 12%
- inhibition [14]: -1.97%
- inhibition [15]: 14.3%
- inhibition [16]: -9.69%
- inhibition [17]: 7.47%
- inhibition [18]: -9.8%
- inhibition [19]: 74.4%
- inhibition (Homo sapiens): -8.51%
- inhibition [20]: 8.49%
- inhibition [21]: 2.83%
- inhibition [22]: 3.43%
- inhibition [23]: 8.07%
- inhibition [24]: 8.12%
- inhibition [25]: 10.9%
- inhibition [26]: 6.13%
- inhibition [27]: 12.1%
- inhibition [28]: 5.78%
- inhibition [29]: -2.31%
